Results on 2 compounds are retold here after patent publication US20160287601A1, “ENHANCED TREATMENT REGIMENS USING PI3K INHIBITORS” (MILLENNIUM PHARMACEUTICALS, INC., priority 2013, published 2016).

For data set [1], the system named is T47D (PIK3CA mutant, ER/PR+) human breast cancer xenografts. Description: Antitumor activity alone and in combination with fulvestrant in T47-D xenografts. Format: in vivo, NOD-SCID mice. As to conditions: Compound A 70 mg/kg PO QD x 3/wk x 3, Fulvestrant 100 mg/kg SC QW x 3; for TGI (tumor growth inhibition): Day 21 post treatment initiation; for ΔAUC (change in area under the tumor volume-versus-time curves): versus vehicle, 21 day treatment. From the text: The control used in this study was 100% PEG400+0.9% Saline. Fulvestrant was formulated in 0.9% saline.
Prior to injection, the cells were detached with Trypsin (Invitrogen), washed twice with phosphate buffered saline (PBS), and resuspended in RPMI (Roswell Park Memorial Institute) media (Invitrogen,) without supplements. Cells were resuspended to a final concentration of 10.0×10^7 cells/ml in DPBS and mixed with 50% Matrigel (BD Biosciences) at 1 to 1 volume. T47-D cells (10.0×10^6 cells/animal in 02-mL injection volume) were implanted S.C. into the right flank of NOD-SCID mice (Harlain Laboratories).
Four-six week old female NOD-SCID mice were inoculated SC in flank (cell suspension in DPBS and 50% Matrigel) with 10.0×10^6 T47-D cells. Tumor growth was monitored with vernier calipers. The mean TV (MTV) was calculated using the formula V=W2×L/2.
The percentage of tumor growth inhibition (TGI) and percent body weight (BW) change were determined on Day 21 and provided in Table 6. Statistical comparisons of tumor growth between the treatment and vehicle groups were conducted using a linear mixed effects regression analysis on the change in area under the tumor volume (TV)-versus—time curves (ΔAUC) values. All p values less than 0.05 were considered significant.
A combination score calculation was used to address the question of whether the effects of the combination treatments were synergistic, additive, subadditive, or antagonistic relative to the individual treatments. The effect was considered synergistic if the synergy score was less than 0, and additive if the synergy score wasn't statistically different from 0.

Data set [2] deals with MDA-MB-361 human breast cancer xenografts. As to the kind of experiment: Antitumor activity in MDA-MB-361 human breast cancer xenografts, various doses and schedules. Format: in vivo, female athymic nude mice. The note with it: PO. The method, then:
Objectives of this study: to determine the in vivo antitumor activity of compound A at various doses and schedules in the MDA-MB-361 human breast cancer xenografts after oral (PO) administration in female nude mice.
Compound A was prepared according to methods disclosed in WO 2011/022439 and WO 2013/071272 and stored at approximately 25° C., shielded from light. The control used in this study was 100% PEG400.
Low passage MDA-MB-361 cells were grown in Dulbecco's Modified Eagle's Medium (DMEM) media supplemented with 20% fetal bovine serum (FBS) and 1× penicillin/streptomycin (Invitrogen [Carlsbad, Calif., USA]) until approximately 80% confluency was reached. […]
Four-five week old female athymic nude mice were inoculated SC in flank (cell suspension in serum free DMEM and 50% Matrigel) with 10.0×10^6 MDA-MB-361 cells. Tumor growth was monitored with vernier calipers. The mean TV (MTV) was calculated using the formula V=W^2×L/2.
When tumors reached a mean tumor volume (MTV) of approximately 280 mm^3, mice (n=5/group) were treated with vehicle (PEG400) or compound A (60, 70, 140, or 210 mg/kg) administered concurrently via oral gavage over a 28 day treatment period on the schedules indicated below in Table 2. The percentage of tumor growth inhibition (TGI) and percent body weight (BW) change were determined on Day 28. […]
In general terms: In xenograft studies the graft and the host belong to different species.

A short description of data set [3]: Phase 1 clinical study, safety and tolerability (MTD, AEs grade 3 or higher) in patients with advanced solid malignancies. The data set is classed as in vivo. From the text: A phase 1 clinical study was initiated to evaluate the safety, tolerability, PK, pharmacodynamics; to determine the maximum tolerated dose (MTD) in each of 3 schedules described below; and to evaluate antitumor activity in patients with advanced solid malignancies.
Inclusion Criteria • Subjects have had their PIK3CA gene mutation status assessed prior to enrolling into the study • Subjects must have documented disease progression prior to enrolling into the study • locally advanced or metastatic solid tumors with the exception of primary brain tumor, and have failed or are not eligible for standard of care therapy. • Age ≧18 years, including males and females; • ECOG performance status (PS) 0-1; • Adequate organ function; • Male subjects must be surgically sterile or must agree to use physician-approved contraception during the study and for 30 days following the last study drug administration; • Ability to swallow oral medications; • Ability to understand and willingness to sign informed consent prior to initiation of any study procedures; • For women of child-bearing potential, negative serum pregnancy test within 14 days prior to the first study drug administration and use of physician-approved method of birth control from 30 days prior to the first study drug administration to 30 days following the last study drug administration
35 patients were enrolled into the dose escalation phase of the study, which is designed to determine the MTD of compound A when given orally on continuous (daily) or intermittent schedules. The MTD for the QD dosing schedule was determined to be 100 mg.
Other than MTD, the other primary outcome measures is the tolerability profile of compound A or the number of adverse events (AE) from the first dose of study drug through 30 days after the last dose of study drug. Plasma levels of compound A is one of the secondary outcome measures.

Turning to `C[C@]12CC[C@@H]3c4ccc(O)cc4C[C@@H](CCCCCCCCC[S+]([O-])CCCC(F)(F)C(F)(F)F)[C@H]3[C@@H]1CC[C@@H]2O` (stereo partly drawn) [Fulvestrant, (7α,17β)-7-{9-[(4,4,5,5,5-pentafluoropentyl)sulfinyl]nonyl}estra-1,3,5(10)-triene-3,17-diol, reference compound], in data set [1], the “TGI (tumor growth inhibition)” value turned out to be 66.70% and the “ΔAUC (change in area under the tumor volume-versus-time curves)” value was determined as 108.4.
For `Nc1nc2cc(-c3ccc4ncc(C(=O)N5CCOCC5)n4c3)ccc2o1` [Compound A, (6-(2-aminobenzo[d]oxazol-5-yl)imidazo[1,2-a]pyridin-3-yl)(morpholino)methanone], in data set [1], the “TGI (tumor growth inhibition)” value was found to be 52.60% and the “ΔAUC (change in area under the tumor volume-versus-time curves)” value is on record as 61.2. Moreover, the “TGI (tumor growth inhibition)” value in data set [1] (listed as compound A) is 52.6%. Besides, the “efficacy in reducing tumor size, intermittent regimen versus daily administration” value in data set [2] (28 day treatment, total amount administered comparable in daily and intermittent schedules) was “as efficacious in reducing tumor size as daily administration”. Also, the “relationship between efficacy (tumor growth inhibition, TGI) and exposure (AUC) between dosing schedules” value in data set [2] (single agent, FIG. 3) is “AUC-driven”. For the same compound, the “maximum tolerated dose (MTD)” value in data set [3] (QD (continuous daily) oral dosing schedule) was determined as 100 mg. For the same compound, in data set [3] (both, human, in vivo), the “Abdominal pain, AEs grade 3 or higher” value was 1 (4) n (%); the “Anaemia, AEs grade 3 or higher” value was 1 (5) n (%); the “Chills, AEs grade 3 or higher” value was 1 (6) n (%); the “Decreased appetite, AEs grade 3 or higher” value is listed as 1 (6) n (%). In addition, in data set [3] (both, human, in vivo), the “Diarrhoea, AEs grade 3 or higher” value is reported as 1 (6) n (%); the “Drug-induced liver injury, AEs grade 3 or higher” value is 1 (4) n (%); the “Hyperglycaemia, AEs grade 3 or higher” value is 2 n (%); the “Nausea, AEs grade 3 or higher” value is on record as 1 (6) n (%). For the same compound, in data set [3] (both, human, in vivo), the “Oxygen saturation, AEs grade 3 or higher” value was 1 (6) n (%) and the “Transaminases incr'd, AEs grade 3 or higher” value is on record as 2 (8) n (%).
